Assay results taken from patent publication US20230042936A1, “PYRIDO[2,3-d]PYRIMIDIN-7(8H)-ONES AS CDK INHIBITORS” (PROSENESTAR LLC, priority 2020, published 2023).
“Also recorded” adds a separate entry of the source. Like-named read-outs stand apart in the source and are kept apart here.

Legend:
CDK1/CycA2 = CDK1/CycA2 (Homo sapiens, UniProt P06493); test: Kinase profiling; type: biochemical; conditions: 10 semi-logarithmic dilutions from 50 μM, singlicate
[1] = test system: H460 lung carcinoma cell line; test: Proliferation assay: determination of GI50; type: cell-based, human; conditions: Homo sapiens, NCI-H460; Table 3; 48 h; n = 2 independent experiments
Description: (§1) The following human tumor cell lines, all Retinoblastoma (Rb)-proficient, were used in this study: MDA-MB231 (breast cancer), MDA-MB453 (breast cancer), U87MG (glioblastoma) and H460 (lung cancer). MDA-MB468 (breast cancer) and SW1783 (glioblastoma) Rb-deficient cells were also included in the study, as well as the MCF10A non-transformed mammary epithelial cell line. Tumor cell lines were maintained in DMEM or RPMI-1640 medium, depending on the cell line, supplemented with 10% FBS. MCF10A cells were grown in complete mammary epithelial growth medium (MEGM, Lonza). Cell lines were authenticated by short tandem repeat (STR) loci profiling with the GenePrint® 10 System (Promega).
(§2) All human cancer cell lines (Table 2) were obtained from the American Type Culture Collection, and were maintained in DMEM (Hyclone) or RPMI-1640 medium (Sigma) supplemented with 10% fetal bovine serum (Sigma). Non-transformed MCF10 cell line was maintained in MEGM Mammary Epithelial Cell Growth Medium (Lonza). Immortalized mouse embryonic fibroblasts (MEFs) were maintained in DMEM with 10% fetal bovine serum.
(§3) 48 h later cells were fixed with PFA 4% for 15 minutes, stained with 10 μg/ml Hoechst 33342 (Molecular Probes, Thermo Fisher) for 30 minutes and washed twice with PBS. Cells were imaged in a high content screening system (Opera Phoenix™, Perkin Elmer) using a 20× dry objective (30 fields/well). Cell counts were determined by the Opera software (Perkin Elmer) and data were further processed with SPSS software. GI50 was calculated by estimating the absolute IC50 using dose-response inhibition tool in Prism6 (Graphpad Software Inc.).

[2] = test system: MCF10 non-transformed mammary epithelial cell line; test: Proliferation assay: determination of GI50; type: cell-based, human; conditions: Homo sapiens, MCF10; Table 3; 48 h; n = 2 independent experiments
Description: as §1, §2, §3

[3] = test system: MDA-MB-231 breast carcinoma cell line; test: Proliferation assay: determination of GI50; type: cell-based, human; conditions: Homo sapiens, MDA-MB-231
Description: as §1, §2, §3

[4] = test system: U87MG glioblastoma cell line; test: Proliferation assay: determination of GI50; type: cell-based, human; conditions: Homo sapiens, U-87 MG
Description: as §1, §2, §3

[5] = Thermodynamic solubility (pH 7.4); type: physicochemical; conditions: pH 7.4, aqueous buffer, thermodynamic from solid
[6] = Kinetic solubility (pH 7.4); type: physicochemical; conditions: pH 7.4, aqueous buffer, kinetic from dmso stock
[7] = Metabolic stability in microsomes; type: in vitro ADME; conditions: mouse, 60-90 min test; for microsomal CLint: read-out: Metabolic stability, Mouse microsomes: Clearance; for half-life: read-out: Metabolic stability, Mouse microsomes: t1/2
[8] = Metabolic stability in hepatocytes; type: in vitro ADME; conditions: human, 60-90 min test; for hepatocyte CLint: read-out: Metabolic stability, Human hepatocytes: Clearance; for half-life: read-out: Metabolic stability, Human hepatocytes: t1/2
[9] = Metabolic stability in hepatocytes; type: in vitro ADME; conditions: mouse, 60-90 min test; for hepatocyte CLint: read-out: Metabolic stability, Mouse heptocytes: Clearance; for half-life: read-out: Metabolic stability, Mouse heptocytes: t1/2
[10] = test system: MDA-MB-231 human breast cancer cells; test: Cell cycle analysis (DNA content, flow cytometry); type: cell-based; conditions: GI50 concentration; FIG. 1
Description: FIG. 1 depicts DNA content profiles of MDA-MB-231 human breast cancer cells treated with subject compounds or commercial CDK inhibitors, showing the percentage of cells at the different cell cycle phases after 48 hours of the treatments indicated. (n=6 technical replicates).
Cells were collected by trypsinization, washed with PBS and fixed with cold 70% ethanol. Cells were treated with 250 μg/ml RNase (Qiagen) for 30 minutes at 37° C. and stained with 10 μg/ml Propidium Iodide (Sigma). Cell cycle was analyzed by flow cytometry using a LSR Fortessa Analyzer. Cell cycle profiles were generated and analyzed with FlowJo software.
Cells were collected by tripsinization at several times after treatment with the indicated compounds and, then, fixed with cold 70% Ethanol. DNA content was determined by staining with propidium iodide (10 μg/ml, Sigma Aldrich). Data acquisition was performed with a LSR Fortessa analyzer (BD Biosciences) and analysed using FlowJo software.

[11] = test system: MDA-MB-231-derived xenografts; test: Tumor xenografts; type: in vivo, Athymic nude mice; conditions: 100 mg/Kg intraperitoneally twice per week, two weeks; for phospho-RB levels in the xenografts: FIG. 9A; for tumor weight / tumor growth: vs DMSO; for tumor weight: FIG. 8A; for tumor growth: FIG. 8B
Description: For histological analysis, mice tissues and human xenografts were fixed in 10%-buffered formalin (Sigma) and embedded in paraffin wax. Sections of 3- or 5-μm thickness were stained with haematoxylin and eosin. Additional immunohistochemical examination was performed using a specific antibody against phospho-Rb (Ser807/811; Cell Signaling) or Ki67 (DAKO).
DMSO, PS004, PS006 and PS009 were diluted in sesame oil and administered intraperitoneally twice per week during two weeks at 100 mg/Kg. […] Tumor growth was monitored using caliper measurements and tumor size was estimated using the following formula: Tumor volume (mm^3)=d^2·D/2 where d and D, are the shortest and longest diameter in mm, respectively. After completing the treatment, mice were sacrificed and tumors were extracted, weighed, and fixed for histological analysis.
The therapeutic effect of the subject compounds was then tested by treating mice previously injected subcutaneously with MDA-MB-231 breast cancer cells. […] The dose amount of 100 mg/kg dosage in these cases was administered at a frequency of two injections per week for the total of two weeks of treatment.

[12] = test system: human cancer cell lines (MDA-MB-231, U87-MG, H460) and MCF10; test: Suppression of proliferation of human cancer cell lines, results in words; type: cell-based; conditions: summary of Table 3
Description: as §3
The cell growth inhibitions of the subject compounds were tested in multiple human cancer cell lines with wild-type Retinoblastoma protein: MDA-MB-231 (breast), U87-MG (glioblastoma), H460 (lung); and MCF10 (as an example of non-transformed human cells) and mutant cells.

[13] = Toxicologic evaluation in vivo; conditions: 50 or 100 mg/kg intraperitoneally twice a week for two weeks; for lung toxicity (hemorrhage in the lungs), mice affected: FIG. 11
[14] = Summary of solubility, metabolic stability and permeability
[15] = Table 3, 48 h, n = 3 independent experiments, read-out: GI50 MDA-MB231
[16] = Table 4, n = 4, read-out: Growth inhibition GI50, Breast cancer pRB Wild-Type MDA-MB-231
[17] = Table 3, 48 h, n = 3 independent experiments, read-out: GI50 U87MG
[18] = Table 4, n = 4, read-out: Growth inhibition GI50, Glioblastoma pRB Wild-Type U87MG

Sequence of CDK1/CycA2 (P06493 whole entry): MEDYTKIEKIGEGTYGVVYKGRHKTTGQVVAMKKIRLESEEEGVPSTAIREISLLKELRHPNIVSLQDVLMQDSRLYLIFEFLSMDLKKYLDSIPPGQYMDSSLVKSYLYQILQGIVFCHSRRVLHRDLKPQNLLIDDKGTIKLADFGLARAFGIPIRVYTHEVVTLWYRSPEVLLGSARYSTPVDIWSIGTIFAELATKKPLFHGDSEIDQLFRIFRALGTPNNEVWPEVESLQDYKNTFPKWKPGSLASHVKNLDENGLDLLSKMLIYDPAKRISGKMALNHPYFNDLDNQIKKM
Sequence of CDK1/CycA2 (P20248 whole entry partner): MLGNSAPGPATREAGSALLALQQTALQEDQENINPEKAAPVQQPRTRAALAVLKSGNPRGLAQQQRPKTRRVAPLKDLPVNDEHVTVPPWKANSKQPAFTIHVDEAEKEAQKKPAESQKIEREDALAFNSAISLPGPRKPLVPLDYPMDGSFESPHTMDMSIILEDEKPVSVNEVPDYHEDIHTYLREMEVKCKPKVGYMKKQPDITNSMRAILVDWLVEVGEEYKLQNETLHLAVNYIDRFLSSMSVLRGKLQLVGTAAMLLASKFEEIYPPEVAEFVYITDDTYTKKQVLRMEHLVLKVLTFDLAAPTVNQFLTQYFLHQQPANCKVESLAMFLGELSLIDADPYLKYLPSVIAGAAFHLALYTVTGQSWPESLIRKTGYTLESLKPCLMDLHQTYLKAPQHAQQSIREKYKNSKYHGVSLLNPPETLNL

SMILES	IC50 (CDK1/CycA2) [µM]	GI50 [1] [µM]	GI50 [2] [µM]	GI50 [3, 15] [µM]	GI50 [3, 16] [µM]	GI50 [4, 17] [µM]	GI50 [4, 18] [µM]	solubility thermodynamic [5] [µM]	solubility kinetic [6] [µM]	microsomal CLint [7] [µL/min/mg]	half-life [7] [min]	hepatocyte CLint [8] [µL/min/1e6 cells]	half-life [8] [min]	hepatocyte CLint [9] [µL/min/1e6 cells]	half-life [9] [min]	cell cycle arrest by DNA content [10]	phospho-RB levels in the xenografts [11]	tumor weight [11]	tumor growth [11]	suppression of cell proliferation [12]	further results
CC(O)CCC1CCN(c2ccc(Nc3ncc4ccc(=O)n([C@@H]5CC6CCC5C6)c4n3)cc2)CC1 (stereo partly drawn) [PS004, 8-((2R)-bicyclo[2.2.1]heptan-2-yl)-2-((4-(4-(3-hydroxybutyl)piperidin-1-yl)phenyl)amino)pyrido[2,3-d]pyrimidin-7(8H)-one]	14.5	1.4	1.43	3.6	3.5	4.5	5.5	< 2	< 1	54.5	25.4	< 6.4	> 217	9.7	143	accumulation of cells both in G1 and G2/M phases; also recorded: arresting cells in G1/G2/M cell cycle phases	reduction of phospho-Rb phosphorylation which however did not reach statistical significance	significantly reduced	significantly reduced	inhibited cell growth with high potential	Ki67 levels in the xenografts ([11]; FIG. 9B): slightly diminished; histopathology of the bone marrow [13]: hypoplasia/reactive bone marrow; histopathology of the intestine [13]: aberrant mitotic figures; histopathology of the spleen [13]: active extramedullar hematopoiesis; blood counts (white blood cells, lymphocytes) ([13]; FIG. 10): reduced lymphocyte counts; lung toxicity (hemorrhage in the lungs), mice affected [13]: 4 out of 6; Summary: permeability [14]: Low; Summary: solubility [14]: Insoluble,; Summary: stability [14]: Stable
CC(O)COC1CCN(c2ccc(Nc3ncc4ccc(=O)n([C@@H]5CC6CCC5C6)c4n3)cc2)CC1 (stereo partly drawn) [PS006, 8-((2R)-bicyclo[2.2.1]heptan-2-yl)-2-((4-(4-(2-hydroxypropoxy)piperidin-1-yl)phenyl)amino)pyrido[2,3-d]pyrimidin-7(8H)-one]	4.28	0.19	0.42	1.4	1.7	2.34	2.2	< 2	< 1	185	7.5	49	28.3	75.7	18.3	induced G2/M arrest; also recorded: arrested cells in G2/M phases	significantly reduced	did not exert any antitumoral effect	did not exert any antitumoral effect	potent cell growth inhibition	histopathology of the spleen [13]: active extramedullar hematopoiesis; lung toxicity (hemorrhage in the lungs), mice affected [13]: 1 out of 6; Summary: efflux [14]: permeable/No; Summary: permeability [14]: High; Summary: solubility [14]: insoluble; also recorded: Insoluble,; Summary: stability [14]: highly unstable
O=c1ccc2cnc(Nc3ccc(N4CCC(CCCO)CC4)cc3F)nc2n1[C@@H]1CC2CCC1C2 (stereo partly drawn) [PS002, 8-((2R)-bicyclo[2.2.1]heptan-2-yl)-2-((2-fluoro-4-(4-(3-hydroxypropyl)piperidin-1-yl)phenyl)amino)pyrido[2,3-d]pyrimidin-7(8H)-one]	34	18	34.6	35.2	–	> 50	–	–	–	–	–	–	–	–	–	–	–	–	–	exception	–
